Results on four compounds are retold here after patent publication EP4089103A1, “CLPCP PROTEASE-BINDING CYCLIC HEPTAPEPTIDES” (priority 2021, dated 2022).

Values after ≈ are worked out from the molar mass of the structure shown. Values joined by “and” are separate entries in the source; they are usually repeats but may differ in a detail not shown here. Equal values may be shown once. Non-standard residues stand in square brackets, D forms with d. Residues, ends and D or L forms follow the SMILES beside them. *: point of attachment. NMeE = CN[C@@H](CCC(=O)O)C(=O)O; NMeL = CN[C@@H](CC(C)C)C(=O)O; NMeK = CN[C@@H](CCCCN)C(=O)O; NHPr = CCCN*

Data set [1] deals with mycobacterial proteome (2912 proteins) incl. BRDTBD1. The data set is described as follows: Selectivity of protein degradation, TMT mass spectrometric analysis of Msm lysates. The class given is cell-based, M. smegmatis. Conditions: TMT MS, triplicate analysis, Figure 4. The protocol:
To address this point, a tandem mass tag (TMT) mass spectrometric (MS) analysis of Msm lysates was performed.
Thus, the TMT MS analysis provides compelling evidence that the compound Cym_bacPROTAC_3 is capable of inducing degradation of the BRDTBD1 substrate in a highly specific and efficient manner.

The subject of data set [2] is BRDTBD1 expressed in M. smegmatis cells. The data set is described as follows: In vivo degradation assay in live mycobacteria, capillary western (Wes). It counts as cell-based, M. smegmatis mc^2-155. The note with it: 100 µM, 10 µM or 1 µM BacPROTAC-3, 100 µM sCym-1 or 100 µM JQ1; 2 hours incubation; Figure 3. Here is the method: After validating the activity of the compound Cym_bacPROTAC_3 in vitro, the compound was investigated in an in vivo degradation assay in a cellular environment. For the in vivo degradation assay Msm cells stably expressing BRDTBD1 were used. The culture was treated with the compound Cym_bacPROTAC_3 or alternatively, the individual building blocks sCym-1 and JQ1. After two hours incubation, BRDTBD1 levels were quantified using capillary western as detailed below.
A stationary culture of M. smegmatis mc^2-155 carrying a plasmid BRDTBD1 expression was diluted 1:200 in 50 mL 7H9 medium supplemented with 50 µg/mL hygromycin. The culture was grown at 37 °C with vigorous shaking to an OD600 of ∼1. Expression of BRDTBD1 was then induced by addition of 200 µL 50% acetamide in H2O. […]
The amounts of BRDTBD1 in the lysates were quantified using Wes (ProteinSimple), a capillary electrophoresis-based western blot technology. Bacterial lysates were diluted 2-fold and analysed using the 12-230 kDa Wes Separation Module (Protein simple, SM-W004) following the manufacturer's instructions. […] BRDTBD1 was detected using the Anti-Rabbit Detection Module for Wes (ProteinSimple, DM-001), which includes a peroxidase-conjugated secondary antibody and a chemiluminescent substrate. Results were analysed using the Compass for SW software (ProteinSimple). […]

The conditions of data set [3]: from H-Val-MeLeu-Ile-Trp(Boc)-MeGlu(tBu)-Ala-Phe-OH; amide bond; 21-membered ring; T3P/DIEA; DCM; 0.75 mM; 25.0 °C.
The conditions of data set [4]: from H-Val-MeLeu-Ile-Trp(Boc)-MeGlu(tBu)-Ala-Phe-OH; amide bond; 21-membered ring; T3P/DIEA; DCM; 0.75 mM; 25.0 °C. The source holds these as a separate data set.
Another data set has as its target T1, ClpC1NTD (Mycolicibacterium smegmatis, UniProt A0R574).
T1 construct: M. smegmatis clpC1 NTD (1-148) was cloned in pET21a; hexahistidine (C); made in house; host or cells: E. coli BL21 (DE3) or Rosetta
The data set is described as follows: Binding affinity by isothermal titration calorimetry (ITC). The note with it: ITC at 25 °C, 50 mM Tris pH 7.5, 100 mM NaCl, 2% DMSO, single binding site model. Here is the method:
Binding affinities were determined using isothermal titration calorimetry (ITC).
ITC experiments were carried out using MicroCal PEAQ-ITC (Malvern) at 25 °C, whilst stirring at 750 rpm in a buffer containing 50 mM Tris pH 7.5, 100 mM NaCl. Each titration consisted of 19 injections with intervals of 120 s (the first injection of 0.4 µL followed by 18 injections of 2 µL). DMSO concentration was matched between cell and syringe to 2%. The data were fitted to a single binding site model with a fitted offset subtraction in the MicroCal PEAQ-ITC Analysis Software. Each titration was repeated at least two times. Titrations were performed with ligand in the syringe and protein in the cell. A control titration of ligand into buffer was performed in order to account for the heat of dilution. Titrations involving compounds with poorer solubility of the compound in buffer were performed with ligand in the cell and protein in the syringe. The following table 2 provides the results of the determination. Table 2: results for dissociation constant (KD) and Minimal Inhibitory Concentration (MIC)

The test system of the next data set is mycobacterial cell. The data set is described as follows: Minimal Inhibitory Concentration (MIC). The class given is cell-based.

T1 sequence (A0R574 1-148): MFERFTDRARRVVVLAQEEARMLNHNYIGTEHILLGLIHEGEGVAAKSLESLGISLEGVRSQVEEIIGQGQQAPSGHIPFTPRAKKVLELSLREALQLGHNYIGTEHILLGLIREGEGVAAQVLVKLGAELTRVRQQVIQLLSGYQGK

On to `Cc1sc2c(c1C)C(c1ccc(Cl)cc1)=N[C@@H](CC(=O)OC(C)(C)C)c1nnc(C)n1-2` [JQ1], for which the “change in protein abundance versus vehicle (DMSO)” value in data set [1] was “did not affect BRDTBD1 levels and did also not cause global effects”. The “BRDTBD1 levels after treatment” value in data set [2] is “did not affect BRDTBD1 levels”.

Consider `CC[C@H](C)[C@@H]1NC(=O)[C@H](CC(C)C)N(C)C(=O)[C@H](C(C)C)NC(=O)[C@H](Cc2ccccc2)NC(=O)[C@H](C)NC(=O)[C@H](CCC(=O)OC(C)(C)C)N(C)C(=O)[C@H](Cc2cn(C(=O)OC(C)(C)C)c3ccccc23)NC1=O` [H-Val-MeLeu-Ile-Trp(Boc)-MeGlu(tBu)-Ala-Phe-OH], for which the ring closure, yield after HPLC in data set [3] is 39%. The ring closure, crude yield in data set [4] was 52% and 54%.

Regarding `CC[C@H](C)[C@@H]1NC(=O)[C@H](CC(C)C)N(C)C(=O)[C@H](C(C)C)NC(=O)[C@H](Cc2ccccc2)NC(=O)[C@H](C)NC(=O)[C@H](CCCCN)N(C)C(=O)[C@H](Cc2c[nH]c3ccccc23)NC1=O` [CycloA_D6] (cyclo(AFV[NMeL]IW[NMeK])), at ClpC1NTD, the Kd was 14.9 µM. The MIC in the data set on mycobacterial cell worked out at 24 µM (≈ 21.3 µg/mL).

On to `CCCNC(=O)CC[C@H]1C(=O)N[C@@H](C)C(=O)N[C@@H](Cc2ccccc2)C(=O)N[C@@H](C(C)C)C(=O)N(C)[C@@H](CC(C)C)C(=O)N[C@@H]([C@@H](C)CC)C(=O)N[C@@H](Cc2c[nH]c3ccccc23)C(=O)N1C` [CycloA_D7] (cyclo(AFV[NMeL]IW[NMeE](NHPr))), for which the Kd on ClpC1NTD came to 26.8 µM. In the data set with mycobacterial cell, this compound displayed an MIC of more than 120 µM.
